In patent US6340670B1, “Acetal benzylmaltosides as inhibitors of smooth muscle cell proliferation” (American Home Products Corporation, priority 1998, dated 2002):

Tested on: Porcine Smooth Muscle Cell
Assay: Effects of Compounds on Cell Proliferation Using 3H Thymidine Incorporation
Format: cell-based
Conditions: @ 50 μM, control (100%) = maximally stimulated cells
Procedure: Effects of Compounds on Cell Proliferation Using ^3H Thymidine Incorporation
Human and porcine smooth muscle cells were tested in early passage (generally passage 3-7) at sub-confluent conditions. Cultures were grown in 16 mm (24 well) multi-well culture dishes in medium 199 supplemented with 10% fetal bovine serum and 2% antibiotic/antimycotic. At sub-confluence, the cells were placed in a defined serum free medium (AIM-V; Gibco) for 24-48 h prior to initiating the experimental protocol.
Compounds were added to each well at 50 fold dilution (20 μL/well) and the plates were incubated for 24-36 h at 37° C. in 5% CO2. Compounds were initially dissolved in 50% ethanol and serially diluted into media. Compounds were routinely evaluated at concentrations from 1 to 100 μM. As a control, grade II porcine intestinal mucosal heparin (sodium salt) was routinely evaluated in all cell preparations at concentrations from 0.1 to 100 μg/mL.
At the completion of the test procedure, plates were placed on ice, washed three times with ice cold phosphate buffered saline (PBS) and incubated in ice cold 10% trichloroacetic acid (TCA) got 30 min to remove acid soluble proteins. Solution was transferred to scintillation vials containing 0.4 N HCl (500 μL/vial to neutralize NaOH) and each well was rinsed two times with water (500 μL) for a total volume of 2 mL/vial.
Data was obtained, in triplicate, for both control and experimental samples. Control (100%) data was obtained from maximally stimulated cells, as the result of growth factor or serum stimulation. Experimental data was obtained from cells maximally stimulated with growth factor or serum and treated with compound. Data are expressed as an IC50 or percent inhibition in Table I below.

Compound | Porcine Smooth Muscle Cell Antiproliferation, percent inhibition [% @ 50]
CS(=O)(=O)Nc1cc(COC2OC(CO)C(OC3OC4COC(c5ccccc5)OC4C(O)C3O)C(O)C2O)ccc1Cl [Example 83, N-{5-[(4′,6′-O-Benzylidene-β-D-maltosyl)-oxy-methyl]-2-chloro-phenyl}-methanesulfonamide] | 18

Same assay, conditions: @ 100 μM, control (100%) = maximally stimulated cells

Compound | Porcine Smooth Muscle Cell Antiproliferation, percent inhibition [% @ 100]
CC(=O)Nc1cc(COC2OC(CO)C(OC3OC4COC(C)OC4C(O)C3O)C(O)C2O)ccc1Cl [Example 1, N-{2-Chloro-5-[(4′,6′-O-ethylidene)-β-D-maltosyloxymethyl]-phenyl}-acetamide] | 32

Same assay, conditions: serum/growth factor stimulated cells, 24-36 h incubation, read-out: Porcine Smooth Muscle Cell Antiproliferation IC50

Compound | IC50 [nM]
CC(=O)OCC1OC(OCc2ccc(C)c(N(C(C)=O)C(C)=O)c2)C(OC(C)=O)C(OC(C)=O)C1OC1OC2COC(c3ccccc3)OC2C(OC(C)=O)C1OC(C)=O [Example 58, N-Acetyl-{5-[(2,2′,3,3′,6-penta-O-acetyl-4′,6′-O-benzylidene-β-D-maltosyl)-oxy-methyl]-2-methyl-phenyl}acetamide] | 600
CC(=O)Nc1cc(COC2OC(COC(C)=O)C(OC3OC4COC(c5ccccc5)OC4C(OC(C)=O)C3OC(C)=O)C(OC(C)=O)C2OC(C)=O)ccc1Cl [Example 25, N-{5-[(4′,6′-O-Benzylidene-2,2′,3,3′,6-penta-O-acetyl-β-D-maltosyl-oxy)-methyl]-2-chloro-phenyl}-acetamide] | 700
N-{5-[(6-O-Benzyl-4′,6′-O-ethylidene-β-D-maltosyl)-oxy-methyl]-2-chloro-phenyl}-acetamide [Example 9] | 83
CC(=O)Nc1cc(COC2OC(COC(=O)c3ccc(C(=O)c4ccccc4)cc3)C(OC3OC4COC(c5ccccc5)OC4C(O)C3O)C(O)C2O)ccc1Cl [Example 56, (R)-N-[5-[[[6-O-(4-Benzoylbenzoyl)-4-O-[4,6-O-(phenylmethylene)-α-D-glucopyranosyl]-β-D-glucopyranosyl]oxy]methyl]-2-chlorophenyl]acetamide] | 530
CC(=O)Nc1cc(CO[C@@H]2O[C@H](CO)[C@@H](O[C@H]3O[C@@H]4COC(c5ccccc5)O[C@H]4[C@H](O)[C@H]3O)[C@H](O)[C@H]2O)ccc1Cl (stereo partly drawn) [Example 24, N-{5-[(4′,6′-O-Benzylidene-β-D-maltosyloxy)-methyl]-2-chloro-phenyl}-acetamide] | 6600
CCC1OCC2OC(OC3C(COC(=O)c4ccccc4)OC(OCc4ccc(Cl)c(NC(C)=O)c4)C(O)C3O)C(O)C(O)C2O1 [Example 5, N-{5-[(6-O-Benzoyl-4′,6′-O-propylidene-β-D-maltosyl)-oxy-methyl]-2-chloro-phenyl}-acetamide] | 37
CC(=O)Nc1cc(COC2OC(COC(=O)c3ccccc3)C(OC3OC4COC(C)OC4C(OC(C)=O)C3OC(C)=O)C(OC(C)=O)C2OC(C)=O)ccc1Cl [Example 3, (R)-N-[2-Chloro-5-[[[2,3-di-O-acetyl-6-O-benzoyl-4-O-(2,3-di-O-acetyl-4,6-O-ethylidene-α-D-glucopyranosyl)-β-D-glucopyranosyl]oxy]methyl]phenyl]acetamide] | 2920
CC(=O)Nc1cc(COC2OC(COC(=O)c3ccccc3)C(OC3OC4COC(Cc5ccccc5)OC4C(O)C3O)C(O)C2O)ccc1Cl [Example 17, N-{5-[(6-O-Benzoyl-4′,6′-O-((1R)-2-phenyl-ethylidene)-β-D-maltosyloxy)-methyl]-2-chloro-phenyl}-acetamide] | 35
CC(=O)Nc1cc(CO[C@@H]2O[C@H](COC(=O)c3ccccc3)[C@@H](O[C@H]3O[C@@H]4COC(c5ccc([N+](=O)[O-])cc5)O[C@H]4[C@H](O)[C@H]3O)[C@H](O)[C@H]2O)ccc1Cl (stereo partly drawn) [Example 11, N-(5-{[6-O-Benzoyl-4′,6′-O-(4-nitro)-benzylidene-β-D-maltosyl]-oxy-methyl}-2-chloro-phenyl)-acetamide] | 3
CC(=O)Nc1cc(CO[C@@H]2O[C@H](COc3ccccc3)[C@@H](O[C@H]3O[C@@H]4COC(c5ccccc5)O[C@H]4[C@H](O)[C@H]3O)[C@H](O)[C@H]2O)ccc1Cl (stereo partly drawn) [Example 60, N-{5-[(4′,6′-O-Benzylidene-6-O-phenyl-β-D-maltosyl)-oxy-methyl]-2-chloro-phenyl}-acetamide] | 38
COC(=O)CCCC(=O)OCC1OC(OCc2ccc(Cl)c(NC(C)=O)c2)C(O)C(O)C1OC1OC2COC(c3ccccc3)OC2C(O)C1O [Example 28, (R)-N-[2-Chloro-5-[[[6-O-(5-methoxy-1,5-dioxopentyl)-4-O-[4,6-O-(phenylmethylene)-α-D-glucopyranoysl]-β-D-gluconyranosyl]oxy]methyl]-phenyl]acetamide] | 400
CC(=O)Nc1cc(COC2OC(COC(=O)c3ccccc3I)C(OC3OC4COC(c5ccccc5)OC4C(O)C3O)C(O)C2O)ccc1Cl [Example 43, N-{5-[(4′,6′-O-Benzylidene-6-O-(2-iodo)-benzoyl-β-D-maltosyl)-oxy-methyl]-2-chloro-phenyl)-acetamide] | 8
CC(=O)Nc1cc(COC2OC(COC(=O)c3cccc(I)c3)C(OC3OC4COC(c5ccccc5)OC4C(O)C3O)C(O)C2O)ccc1Cl [Example 44, N-{5-[(4′,6′-O-Benzylidene-6-O-(3-iodo)-benzoyl-β-D-maltosyl)-oxy-methyl]-2-chloro-phenyl}-acetamide] | 62
CC(=O)Nc1cc(COC2OC(CO)C(OC3OC4COC(c5ccc(Cl)cc5)OC4C(O)C3O)C(O)C2O)ccc1Cl [Example 12, N-{2-Chloro-5-[(4′,6′-O-(4-chloro)-benzylidene-β-D-maltosyl)-oxy-methyl]-phenyl}-acetamide] | 29400
CCOCCC1OCC2OC(OC3C(COC(=O)c4ccccc4)OC(OCc4ccc(Cl)c(NC(C)=O)c4)C(O)C3O)C(O)C(O)C2O1 [Example 21, N-{5-{[6-O-Benzoyl-4′,6′-O-((1R)-3-ethoxypropylidene)-β-D-maltosyloxy]-methyl}-2-chloro-phenyl}-acetamide] | 62
CC(=O)Nc1cc(COC2OC(COCc3ccccc3)C(OC3OC4COC(c5ccccc5)OC4C(O)C3O)C(O)C2O)ccc1Cl [Example 8, N-{5-[(6-O-Benzyl-4′,6′-O-benzylidene-β-D-maltosyl)-oxy-methyl]-2-chloro-phenyl}-acetamide] | 1
O=C(OCC1OC(SCc2ccc(Cl)c([N+](=O)[O-])c2)C(O)C(O)C1OC1OC2COC(c3ccccc3)OC2C(O)C1O)c1ccccc1 [Example 87, (4-Chloro-3-nitro-benzyl) 6-O-benzoyl-4′,6′-O-benzoyl-4′,6′-O-benzylidene-1-thio-β-D-maltoside] | 31
CC(=O)Nc1cc(COC2OC(COC(=O)Cc3ccccc3)C(OC3OC4COC(c5ccccc5)OC4C(OC(C)=O)C3OC(C)=O)C(OC(C)=O)C2OC(C)=O)ccc1Cl [Example 47, (R)-N-[2-Chloro-5-[[[2,3-di-O-acetyl-4-O-[2,3-di-O-acetyl-4,6-O-(phenylmethylene)-α-D-glucopyranosyl]-6-O-(phenylacetyl)-β-D-glucopyranosyl]-oxy]methyl]phenyl]acetamide] | 78
O=C(Nc1cc(COC2OC(CO)C(OC3OC4COC(c5ccccc5)OC4C(O)C3O)C(O)C2O)ccc1Cl)c1ccc(C(=O)c2ccccc2)cc1 [Example 70, 4-Benzoyl-N-{5-[(4′,6′-O-benzylidene-β-D-maltosyl)-oxy-methyl]-2-chloro-phenyl}-benzamide] | 9940
CC(=O)Nc1cc(COC2OC(COC(=O)c3ccccc3)C(OC3OC4COC(C(C)C)OC4C(O)C3O)C(O)C2O)ccc1Cl [Example 15, N-{5-[(6-O-Benzoyl-4′,6′-O-isobutylidene-β-D-maltosyl)-oxy-methyl]-2-chloro-phenyl}-acetamide] | 3
